From patent US20180325933A1, “FOOD INTAKE, BODY WEIGHT AND GLUCOSE METABOLISM REGULATION BY MODULATION OF P2Y6 RECEPTOR SIGNALING” (priority 2014, published 2018)
No end group written: not given here.

Tests used:
[1] = system: wild type mice fed a normal chow diet; assay: Spontaneous food intake after intracerebroventricular (ICV) administration; assay type: in vivo
Protocol: To explore whether UDP plays a direct role on the central regulation of feeding behavior, the effect of intracerebroventricular administration (ICV) of UDP on spontaneous food intake in wild type mice fed with a normal chow diet was measured. Therefore, mice were anesthetized using ketamine/dexmedetomidine. Guide cannulas (26 gauges) were stereotaxically inserted into the lateral ventricle (bregma −0.2 mm, midline 1.0 mm, dorsal surface −2.1 mm). Animals were allowed to recover for one week prior to experiments.
Prior to the onset of the dark phase, mice acutely received 2 μL ICV administration of UDP (1 μM, 10 μM and 30 μM; Sigma-Aldrich®), MRS 2578 (1 μM, 10 μM; Sigma-Aldrich®), or control solution (NaCl). Spontaneous food intake was measured 2 and 4 hours after ICV administration from pre-weighed portions of food dispensed from the food rack. […] UDP appears to be a strong orexigenic agent as administration of 30 μM UDP induces a 45% increase of spontaneous food intake.
FIG. 1: (A) Food intake measurement (depicted as food intake to body weight) after intracereborventricular (icv) administration of increasing doses of UDP (1 μM, 10 μM and 30 μM) or vehicle (saline) (n=26vs13vs11vs14). (B) Food intake measurement (depicted as food intake to body weight) after intracereborventricular (icv) administration of P2Y6 antagonist MRS2578 (1 μM and […]) or vehicle (saline) (n=9vs5vs5). Data are presented as mean±SEM. **p<0.01, ***p<0.001.

AgRP neurons = assay: Electrophysiological recordings from AgRP-neurons; assay type: cell-based, AgRPtdTomato mice
Excerpt: Next the inventors aimed to further directly support the notion, that the P2Y6 agonist UDP can modulate the activity of AgRP-expressing neurons in the ARH. Therefore, the inventors performed electrophysiological recordings from transgenic mice which express red tomato protein under control of the AgRP promoter through Cre-loxP-mediated recombination in (B6; 129S6-Gt(ROSA)26Sortm9(CAG-tdTomato)Hze/J) mice (AgRPtdTomato) (FIGS. 4B and 4C). […] Collectively, these experiments indicate that orexigenic AgRP/NPY-coexpressing neurons in the ARH not only express the UDP receptor P2Y6 but that they are directly activated following UDP application both in vitro and in vivo.
Having defined that the food intake-promoting activity of UDP is mediated through P2Y6-dependent signaling, the inventors aimed to assess whether also UDP's ability to activate AgRP-neuron firing depends on functional P2Y6 signaling. To this end, the inventors performed electrophysiological recordings from genetically identified AgRP-neurons in AgRPtdTomato mice. […] Thus, not only UDP-induced activation of feeding but also UDP-stimulated activation of AgRP-neurons critically depends on functional P2Y6 signaling.
FIG. 4: (A) Confocal images and quantitative comparison of ARH cFos immunoreactive cells in NPY-GFP mice after intracerebroventricular administration of vehicle (saline) or 30 μM UDP (n=3 vs. 4). (B) Recording of an AgRPtdTomato neuron showing the increase in action potential frequency in response to the application of 3 μM UDP. […] (C) Identification of a recorded neuron by antibody staining against tdTomato (red) and a biocytin backfill of the recorded neuron (green). (D) Overall responsiveness to 3 μM UDP of the recorded AgRP neuron population (n=11 in total: 4 non-responsive neurons vs 7 responsive). (E) Quantification of action potential (AP) frequency (n=11). Grey circles mark single recordings responding with a significant increase in AP frequency, open circles are non-responsive neurons. All recordings have been conducted in synaptically isolated neurons. Scale bars: A, 50 μm; B, 100 μm and C, […] and […] in the magnifications, respectively. V3, third ventricle. Data are presented as mean±SEM, *p<0.05 (A) and as boxplots generated according to the “Tukey method” (mean: “+” median: horizontal line) (E). *p<0.05.
FIG. 6: Food intake measurement after intracerebroventricular (icv) administration of (A) vehicle (0.1% DMSO), 1 μM of the P2Y6-specific antagonist MRS […] or co-icv of 30 μM UDP and 1 μM MRS 2578 (n=10vs11vs14vs12), or (B) vehicle (0.1% DMSO), 1 μM MRS 2578, 2 μg ghrelin or co-icv of 2 μg ghrelin and 1 μM MRS 2578 (n=13vs13vs14vs14). (C) Original traces showing the action potential firing during the application of MRS 2578 and during the application of 3 μM UDP in the presence of MRS 2578. (D) Quantification of action potential frequency (AP) (n=12). Data are presented as mean±SEM, *p<0.05 (A-B) and as boxplots generated according to the “Tukey method” (mean: “+”, median: horizontal line) […]. *p<0.05, **p<0.01, ***p<0.001 as compared to vehicle or control.

P2Y6 = assay: Food intake after icv UDP or ghrelin with or without P2Y6 antagonist; assay type: in vivo, mice
Excerpt: To further elucidate the specific contribution of P2Y6-mediated signaling in UDP-dependent activation of food intake, the inventors took a pharmacological approach.
Data are presented as mean±SEM, *p<0.05 (A-B) and as boxplots generated according to the “Tukey method” (mean: “+”, median: horizontal line) (F). *p<0.05, **p<0.01, ***p<0.001 as compared to vehicle or control.

[2] = system: P2Y1, P2Y2, P2Y4 or P2Y11 receptors; conditions: cited from earlier work
[3] = system: pERK-positive cells in the ARH; assay: pERK immunoreactivity in the arcuate nucleus after icv administration; assay type: in vivo, mice; conditions: icv 30 μM UDP
Protocol: (§1) Having identified a restricted domain of P2Y6 expression in neurons of the ARH, the inventors next investigated whether intracerebroventricular (icv) application of the P2Y6 agonist UDP modulates activation of ARH neurons. To this end, C57BL/6 N control mice were implanted with icy cannulas in the lateral ventricle. Following icy administration of either vehicle (i.e. saline) or 30 μM UDP, brains were processed for immunochemistry with an antibody, which detects the immediate early gene product cFos. […] Since cFos activation can occur either directly in the respective brain area or indirectly via trans-synaptic activation of cells located in projecting areas of directly activated neurons, the inventors investigated the direct effect of UDP on its P2Y6. […] Therefore, the inventors also used pERK as a direct read-out of UDP action and the inventors assessed pERK immunoreactivity in the arcuate nucleus following icy UDP application. […]
(§2) FIG. 3: Confocal images and quantification comparison of (A) cFos- and (B) pERK-immunoreactive cells in the arcuate nucleus (ARH) of mice after intracerebroventricular administration of vehicle (saline) or 30 μM UDP (ncFos=7vs9; npERK=5vs6). […] (C) Quantification and representative immunoblots of phosphorylated and total ERK in hypothalamic cell lines after incubation with vehicle (saline) or 1 μM UDP (n=11vs12, from 3 independent experiments). […]

NPY-neurons in the ARH = assay: cFos immunoreactivity of NPY-neurons in NPY-GFP mice after icv administration; assay type: in vivo; conditions: icv 30 μM UDP; 20% following vehicle
Excerpt: Given that the ventromedial part of the ARH mainly contains AgRP/NPY neurons, the inventors next directly investigated the specific effect of P2Y6/UDP on those neurons. The inventors addressed whether icy application of UDP specifically activates NPY/AgRP-coexpressing neurons in the ARH. The inventors therefore repeated the UDP-induced cFos experiments in mice, which express GFP under control of the neuropeptide (NPY)-promotor (NPY-GFP-mice).
FIG. 4: (A) Confocal images and quantitative comparison of ARH cFos immunoreactive cells in NPY-GFP mice after intracerebroventricular administration of vehicle (saline) or 30 μM UDP (n=3 vs. 4). (B) Recording of an AgRPtdTomato neuron showing the increase in action potential frequency in response to the application of 3 μM UDP. […] (C) Identification of a recorded neuron by antibody staining against tdTomato (red) and a biocytin backfill of the recorded neuron (green). (D) Overall responsiveness to 3 μM UDP of the recorded AgRP neuron population (n=11 in total: 4 non-responsive neurons vs 7 responsive). (E) Quantification of action potential (AP) frequency (n=11). Grey circles mark single recordings responding with a significant increase in AP frequency, open circles are non-responsive neurons. All recordings have been conducted in synaptically isolated neurons. […]

[4] = system: cFos immunoreactive cells in the arcuate nucleus of the hypothalamus; assay: cFos immunoreactivity in the arcuate nucleus after icv administration; assay type: in vivo, C57BL/6 N mice; conditions: icv 30 μM UDP versus vehicle (saline)
Protocol: as §1, §2

[5] = system: hypothalamic cell line (immortalized AgRP-neurons); assay: ERK phosphorylation in hypothalamic cell line (immunoblot); assay type: cell-based; conditions: 1 μM UDP
Protocol: as §1, §2

AgRPCre mice = assay: Food intake with pharmacogenetic (hM4D/CNO) inhibition of AgRP cells; assay type: in vivo; conditions: icv 30 μM UDP
Excerpt: To directly assess, whether the ability of centrally applied UDP to activate feeding depends on AgRP-cell activation, the inventors investigated the effect of centrally administered UDP in mice, which allow for pharmacogenetic inhibition of AgRP cells. To this end, the inventors injected AgRPCre mice bilaterally into the ARH with an AAV, which co-expresses in a Cre-dependent manner the inhibtory DREADD-channel hM4D and mCherry.
FIG. 5: (A) Representative microphotographs of mCherry immunostainng in control and AgRP^Cre mice injected bilaterally in the arcuate nucleus (ARH) with Cre-dependent rAAV-hSyn-DIO-hM4D(Gi)-mCherry (mCherry, red; DAPI counterstaining, blue). Scale bar: 100 μm. V3, third ventricle. (B) Food intake measurement in virus-injected AgRP^Cre mice or control wild type litter mates. Mice received CNO injections (0.3 mg/kgBW) 15 minutes prior to icy administration of 30 μM UDP or vehicle (Saline) (n=6 vs 8 vs 5 vs 5). Data are presented as mean±SEM, **p<0.01, ***p<0.001 as compare to vehicle.

[6] = Serum uridine after intraperitoneal uridine; assay type: in vivo, C57BL/6 N mice; conditions: 50 mg/kgBW uridine i.p.
Protocol: (§3) To directly address whether elevation of serum uridine concentrations—as observed in obesity—can lead to increased hypothalamic UDP synthesis, the inventors next injected C57BL/6 N control animals intraperitoneally with uridine.
(§4) FIG. 9: Effects of intraperitoneal injection of uridine (50 mg/kgBW) or vehicle (saline) in C57B16/N mice on (A) serum uridine (n=4-5 per group) and on (B) hypothalamic UDP contents (n=5 per group) 60 and 90 minutes post-injection as well on (C) food intake (n=15 per group). Data are presented as mean±SEM, *p<0.05, **p<0.01, ***p<0.001.

[7] = system: C57BL/6 N control animals; assay: Food intake after intraperitoneal uridine; assay type: in vivo, C57BL/6 N mice; conditions: 50 mg/kgBW uridine i.p., 4 hours after application
Protocol: as §3, §4

[8] = Hypothalamic UDP content after intraperitoneal uridine; assay type: in vivo, C57BL/6 N mice; conditions: 50 mg/kgBW uridine i.p., 90 minutes after application
Protocol: as §3, §4

S=C=Nc1cccc(NC(=S)NCCCCNC(=S)Nc2cccc(N=C=S)c2)c1 [MRS2578, 1,4-Di[3-(3-isothiocyanatophenyl)thioureido]butane]
spontaneous food intake ([1]; ICV 2 μL MRS 2578 (1 μM, 10 μM)): decreases food intake | effect on UDP's ability to reduce the membrane potential and activate action potential firing of AgRP-neurons (AgRP neurons; MRS 2578-preincubation, 3 μM UDP): abrogated | action potential frequency of AgRP-neurons, antagonist alone (AgRP neurons; MRS 2578 alone): no influence on action potential frequency | effect on ghrelin's ability to increase food intake (P2Y6; co-icv 2 μg ghrelin and 1 μM MRS 2578): no effect | effect on UDP-induced increase of food intake (P2Y6; co-icv 30 μM UDP and 1 μM MRS 2578): completely abrogated | food intake, antagonist alone (P2Y6; icv 1 μM MRS 2578): does not modulate food intake by itself | selectivity for P2Y6 receptor activity versus activity at P2Y1, P2Y2, P2Y4 or P2Y11 receptors [2]: selectively blocks P2Y6 receptor activity

O=c1ccn([C@@H]2O[C@H](COP(=O)(O)OP(=O)(O)O)[C@@H](O)[C@H]2O)c(=O)[nH]1 [UDP, uridine diphosphate]
increase of spontaneous food intake ([1]; ICV 30 μM UDP): 45% | spontaneous food intake ([1]; ICV 2 μL, 1 μM, 10 μM and 30 μM, food intake measured 2 and 4 hours after ICV): increases food intake in a dose-dependent manner | action potential frequency of AgRP neurons (AgRP neurons; 3 μM UDP): increased action potential frequency | number of responsive neurons in the recorded AgRP neuron population (AgRP neurons; 3 μM UDP, n=11 in total): 7 | proportion of AgRP-neurons sensitive to UDP (AgRP neurons; electrophysiology, 3 μM UDP): 60% | number of pERK-positive cells in the ARH [3]: significantly increased the number of pERK-positive cells | increase of food intake (P2Y6; icv UDP alone): ≈ 50% | proportion of NPY-neurons exhibiting cFos immunoreactivity (NPY-neurons in the ARH): 60% | increase in cFos immunoreactivity in the arcuate nucleus of the hypothalamus [4]: 2.5 fold | ERK-phosphorylation [5]: clearly increased ERK-phosphorylation | UDP's food intake stimulatory effect (AgRPCre mice; AAV-injected AgRPCre mice, CNO-mediated inhibition of AgRP-neurons): completely abolished | effect of AAV injection and CNO on UDP-induced food intake (AgRPCre mice; Cre-negative control animals, CNO 0.3 mg/kgBW): no effect

O=c1ccn([C@@H]2O[C@H](CO)[C@@H](O)[C@H]2O)c(=O)[nH]1 [uridine]
serum uridine concentrations ([6]; 60 minutes post injection): rapid increase of serum uridine concentrations | serum uridine concentrations ([6]; 90 minutes after injection): returned to baseline concentrations | food intake [7]: increased food intake significantly | hypothalamic UDP content [8]: elevation of hypothalamic UDP content

ghrelin: centrally applied ghrelin, used to increase feeding as specificity control (GSSFLSPEHQRVQQRKESKKPPAKLQPR; ends and bridges not checked; UniProt Q9UBU3 24-51, looked up)
feeding (P2Y6; icv 2 μg ghrelin): increased feeding to comparable extend as observed upon UDP injection
